Consider 43 compounds from ChEMBL document CHEMBL1201862, “PubChem BioAssay data set” (2004).

One experiment concerns the target Cytochrome P450 2C9 (Homo sapiens, UniProt P11712).
The target in the next experiment is Cytochrome P450 2C19 (Homo sapiens, UniProt P33261). Description: Cytochrome panel assay with activity outcomes. Panel member name: p450-cyp2c19 Compounds with AC50 equal or less than 10 uM are considered active. In kind it is functional. The following applies: read-out: AC50.
The next experiment addresses T1, Cytochrome P450 1A2 (Homo sapiens, UniProt P05177).
T1 sequence (P05177 whole entry): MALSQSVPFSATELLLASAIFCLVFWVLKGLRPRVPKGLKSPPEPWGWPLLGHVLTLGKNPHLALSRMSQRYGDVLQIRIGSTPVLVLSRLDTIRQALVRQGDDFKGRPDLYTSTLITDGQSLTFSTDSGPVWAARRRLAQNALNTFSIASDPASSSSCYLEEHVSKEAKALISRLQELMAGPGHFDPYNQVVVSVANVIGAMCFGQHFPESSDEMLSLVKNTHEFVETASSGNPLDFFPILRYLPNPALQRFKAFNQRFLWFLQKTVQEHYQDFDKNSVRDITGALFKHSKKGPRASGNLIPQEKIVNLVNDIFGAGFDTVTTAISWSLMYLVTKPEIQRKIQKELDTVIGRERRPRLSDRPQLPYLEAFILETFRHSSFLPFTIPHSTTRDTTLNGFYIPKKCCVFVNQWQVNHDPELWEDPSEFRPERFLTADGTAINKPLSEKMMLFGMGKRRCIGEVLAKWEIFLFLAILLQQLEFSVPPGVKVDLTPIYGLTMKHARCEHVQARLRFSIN

Experiment [1] addresses T2, Heat shock factor protein 1 (Mus musculus, UniProt P38532).
T2 sequence (P38532 whole entry): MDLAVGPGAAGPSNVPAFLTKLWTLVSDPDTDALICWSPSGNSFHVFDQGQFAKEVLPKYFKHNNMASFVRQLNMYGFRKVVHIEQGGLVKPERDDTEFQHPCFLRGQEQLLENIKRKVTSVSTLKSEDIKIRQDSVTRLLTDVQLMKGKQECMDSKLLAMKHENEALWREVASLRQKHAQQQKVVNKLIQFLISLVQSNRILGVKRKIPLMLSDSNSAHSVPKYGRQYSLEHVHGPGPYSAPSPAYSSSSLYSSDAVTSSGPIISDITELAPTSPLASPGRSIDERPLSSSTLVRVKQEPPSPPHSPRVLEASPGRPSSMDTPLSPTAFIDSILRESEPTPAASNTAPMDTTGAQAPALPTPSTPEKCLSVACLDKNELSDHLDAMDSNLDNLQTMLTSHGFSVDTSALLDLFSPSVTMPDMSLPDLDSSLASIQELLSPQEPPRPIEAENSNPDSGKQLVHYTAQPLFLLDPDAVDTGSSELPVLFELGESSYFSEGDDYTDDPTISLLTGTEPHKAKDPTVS
Description: HSF1 potentiators in luciferase reporter cells, confirmation, cell-based, NIH3T3, luminescence, dose retest (AID 435004).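 Note: stress induced by proteasome inhibitor MG132 added 30 min after compound; luciferase reporter driven by HSF1 response element in NIH3T3 cells; actives raise luminescence as potentiators of the MG132 stress response.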 In kind it is functional.

Experiment [2] can be described thus: Luminescence Cell-Based Dose Response HTS to Identify Activators of Luciferase Translation or Activity in H4 […] Cells. [Related pubchem assays: 1829 (Project Summary), 1814 (Primary HTS)]. In kind it is functional.
Another experiment deals with H4. Description: Luminescence Cell-Based Dose Response HTS to Identify Activators of 5'UTR Stem-Loop Driven Prion Protein mRNA Translation in H4 Neuroglioblastoma Cells. [Related pubchem assays: 1829 (Project Summary), 1814 (Primary HTS)]. In kind it is functional. The following applies: Homo sapiens.
Experiment [3] is described as follows: Luminescence Cell-Based Dose Confirmation HTS to Identify Activators of 5'UTR Stem-Loop Driven Alpha-Synuclein mRNA Translation in H4 Neuroglioblastoma Cells. [Related pubchem assays: 1829 (Project Summary), 1814 (Primary HTS)]. In kind it is functional.
The nature of experiment [4]: NIH-3T3 fibroblast cytotoxicity, dose response, cytotoxicity control, cell-based, fluorescence, Alamar Blue, secondary assay (AID 2327).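 Note: NIH-3T3 mouse fibroblasts cultured with fluconazole at 8 µg/mL.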 In kind it is functional. For orientation: Alamar Blue is a resazurin reagent that responds to reducing activity.
The next experiment deals with Cytochrome P450 3A4 (Homo sapiens, UniProt P08684).
For experiment [5], the target named is T2, Heat shock factor protein 1. As to the kind of experiment: inhibition of MG132-induced HSE-luciferase signal, confirmation, cell-based, NIH3T3, luminescence, dose retest (AID 2382).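 Note: NIH3T3 fibroblasts with HSF1-driven luciferase reporter stressed by proteasome inhibitor MG132; luminescence from HSF1-driven luciferase expression after 8 hours of MG132 stress.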 In kind it is functional.

SMILES strings stand for the structures. Active and inactive are the calls of the source.

Sequence of Cytochrome P450 2C19 (P33261 whole entry): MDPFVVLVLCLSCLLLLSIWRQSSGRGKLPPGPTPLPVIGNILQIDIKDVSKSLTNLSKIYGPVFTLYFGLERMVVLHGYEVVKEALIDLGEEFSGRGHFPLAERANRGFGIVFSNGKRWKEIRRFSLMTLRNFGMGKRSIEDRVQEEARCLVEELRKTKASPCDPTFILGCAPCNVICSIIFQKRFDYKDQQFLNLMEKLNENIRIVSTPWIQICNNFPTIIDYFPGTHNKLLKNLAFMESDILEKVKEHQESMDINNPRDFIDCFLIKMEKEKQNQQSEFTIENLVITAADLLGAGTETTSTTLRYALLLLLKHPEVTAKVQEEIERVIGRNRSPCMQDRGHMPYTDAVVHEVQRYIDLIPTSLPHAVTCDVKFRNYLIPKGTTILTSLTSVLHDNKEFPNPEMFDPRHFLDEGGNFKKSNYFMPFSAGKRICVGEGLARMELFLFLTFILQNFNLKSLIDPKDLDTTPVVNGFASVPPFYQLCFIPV
Sequence of Cytochrome P450 2C9 (P11712 whole entry): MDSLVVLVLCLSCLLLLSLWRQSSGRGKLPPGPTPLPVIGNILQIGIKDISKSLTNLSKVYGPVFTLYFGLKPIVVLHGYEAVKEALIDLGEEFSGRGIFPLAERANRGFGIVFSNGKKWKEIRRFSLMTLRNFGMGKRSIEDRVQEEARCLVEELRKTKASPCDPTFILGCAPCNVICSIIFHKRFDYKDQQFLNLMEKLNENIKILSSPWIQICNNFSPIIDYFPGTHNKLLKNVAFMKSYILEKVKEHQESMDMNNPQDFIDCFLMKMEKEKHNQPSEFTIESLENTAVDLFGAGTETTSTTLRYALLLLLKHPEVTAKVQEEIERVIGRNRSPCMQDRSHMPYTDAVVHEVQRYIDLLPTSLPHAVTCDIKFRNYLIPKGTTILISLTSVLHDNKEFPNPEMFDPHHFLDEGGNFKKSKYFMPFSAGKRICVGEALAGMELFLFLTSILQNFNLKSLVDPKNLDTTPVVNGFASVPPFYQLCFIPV
Sequence of Cytochrome P450 3A4 (P08684 whole entry): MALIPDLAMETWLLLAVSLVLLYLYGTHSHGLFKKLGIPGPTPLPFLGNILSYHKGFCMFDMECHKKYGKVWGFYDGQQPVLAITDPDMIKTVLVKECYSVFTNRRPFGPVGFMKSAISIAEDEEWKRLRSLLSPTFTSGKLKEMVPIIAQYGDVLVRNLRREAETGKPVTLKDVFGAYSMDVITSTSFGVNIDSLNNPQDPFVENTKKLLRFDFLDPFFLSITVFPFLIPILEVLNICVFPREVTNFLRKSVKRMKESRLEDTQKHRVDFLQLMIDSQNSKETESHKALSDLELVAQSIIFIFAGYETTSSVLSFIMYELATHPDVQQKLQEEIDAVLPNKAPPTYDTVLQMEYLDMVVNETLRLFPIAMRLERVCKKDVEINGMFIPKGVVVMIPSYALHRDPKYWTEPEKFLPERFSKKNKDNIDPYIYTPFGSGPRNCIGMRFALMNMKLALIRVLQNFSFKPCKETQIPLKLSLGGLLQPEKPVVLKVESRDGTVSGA

Regarding `CCCC[C@H]1C(=O)N(c2ccccc2)N(c2ccc(O)cc2)C1=O`, the AC50 (as a rule, the midpoint of the concentration-response curve, whichever way the signal moves) on Cytochrome P450 2C9 was 12.6 µM (inconclusive); at Cytochrome P450 2C19, 15.8 µM (inconclusive); at Cytochrome P450 1A2, 0.001 µM (inconclusive).

`C=CCSC1=C(C#N)C(c2cccc(OC)c2)CC(=O)N1` (centres undefined): the EC50 – broadly, the concentration at which the effect is half-maximal – in [1] is > 260 µM (inactive).

With `CC(=O)C1=NOC(CNc2ncc(C(F)(F)F)cc2Cl)C1` (centres undefined), the EC50 in [2] is 17 µM (active); in the experiment on H4, 16.2 µM (active); in experiment [3], 15.7 µM (active).

On to `CC(=O)N1c2ccc(S(=O)(=O)N3CCC(C(=O)NCc4ccccc4Cl)CC3)cc2CC1C` (centres undefined), for which the EC50 (in experiment [2]; with H4; in [3]) was > 120 µM (not active) in each case.

In the case of `Cc1ccc2nsnc2c1NC(=O)COc1ccccc1F`, the EC50 in experiment [4] is > 150 µM (inconclusive).

`CC(O)(CS(=O)(=O)c1ccccc1)C(=O)Nc1cccc(C(F)(F)F)c1` (centres undefined): on Cytochrome P450 2C9, the AC50 was 35.5 µM (inconclusive).

Regarding `CCC1Oc2ccc(C)cc2N(Cc2cccc(C)c2)C1=O` (centres undefined), the EC50 in experiment [1] is > 260 µM (inactive).

With `CCn1c(SCC(=O)Nc2ccc(C(C)=O)cc2)nc2nc3c(cc2c1=O)COC(C)(C)C3`, the EC50 in experiment [2] is 32.9 µM (active); in the experiment on H4 it was 12.8 µM (active); in experiment [3] it was > 120 µM (not active).

In the case of `CCOc1ccc(NC(=O)C(S)=NC2CCCCC2)cc1`, the results for the EC50 (in [2]; with H4; in [3]) were 21.1 µM (active), 11 µM (active) and 61.6 µM (active), respectively.

Turning to `CN(C)c1ncc2nc(-c3ccccc3)c(=O)n(Cc3cccs3)c2n1`, the AC50 on Cytochrome P450 3A4 is 15.8 µM (inconclusive); on Cytochrome P450 2C9, 10 µM (inconclusive).

Turning to `O=C(NN=C1C2CC3CC1CC(Cl)(C3)C2)c1ccccn1`, the EC50 (in [2]; in the experiment on H4; in [3]) was > 120 µM (not active) each time.

On to `COc1ccc(N2CCN(Cc3nc4c(c(=O)[nH]c(=O)n4C)n3CCCc3ccccc3)CC2)cc1`, for which the AC50 on Cytochrome P450 2C9 is 39.8 µM (inconclusive); at Cytochrome P450 2C19 it was 28.2 µM (inconclusive).

Turning to `COC(=O)CSC1=C(C#N)C(c2cccc(F)c2)CC(=O)N1` (centres undefined), the AC50 on Cytochrome P450 3A4 was 39.8 µM (inconclusive); on Cytochrome P450 2C9, 0.0282 µM (inconclusive).

Take `COc1ccc(Oc2ncc3nc(C)c(=O)n(-c4ccc(OC)cc4)c3n2)cc1`: the AC50 at Cytochrome P450 2C9 is 39.8 µM (inconclusive).

As to `CC(O)(CS(=O)(=O)Cc1ccccc1Cl)C(=O)Nc1cccc(C(F)(F)F)c1` (centres undefined), the AC50 on Cytochrome P450 2C9 was 11.2 µM (inconclusive).

Turning to `COCCN=C(S)N1C2CCC1CC(NC(=O)NC13CC4CC(CC(C4)C1)C3)C2` (centres undefined), the AC50 is 14.1 µM (inconclusive) at Cytochrome P450 2C9 and 20 µM (inconclusive) on Cytochrome P450 2C19.

Consider `O=C(O)/C=C\c1c2ccc(=O)c(O)c-2oc2c(O)c(O)ccc12`, for which the AC50 on Cytochrome P450 2C9 is 7.94 µM (inconclusive); at Cytochrome P450 2C19 it was 3.16 µM (inconclusive).

As for `Cc1nc(C(=N)NOC(=O)Cc2ccccc2)no1`, the EC50 in experiment [1] is > 260 µM (inactive).

As to `COC(=O)C(CCSC)NC(=O)c1cccc([N+](=O)[O-])c1` (centres undefined), the AC50 at Cytochrome P450 2C9 was 2 µM (inconclusive).

On to `C=CCn1c(C)cc(C(=O)CSc2nc(N)cc(N)n2)c1C`, for which, in experiment [1], the EC50 was > 260 µM (inactive).

With `CC(C)CC1NC(=O)N(CC(=O)c2ccc3c(c2)OCCO3)C1=O` (centres undefined), the EC50 was 1.48 µM (active) in experiment [2], 6.39 µM (active) with H4 and 0.298 µM (active) in experiment [3].

As to `Cc1nn(CC(=O)c2ccccc2Cl)c(C)c1[N+](=O)[O-]`, the EC50 in experiment [2] was 15.8 µM (active); in the experiment with H4, 25.4 µM (active); in [3], 38.2 µM (active).

As for `CC1=NC(=O)C(N=Nc2cccc(O)c2)N1c1ccccc1` (centres undefined), the EC50 in experiment [2] is 13.7 µM (active); with H4, 20.2 µM (active); in experiment [3], 15.5 µM (active).

Turning to `CC(=O)N1CCc2cc(S(=O)(=O)NCCC(=O)Nc3ccc4c(c3)OCCO4)ccc21`, the values for the EC50 (in experiment [2]; in the experiment with H4; in experiment [3]) were 9.85 µM (active), 25.6 µM (active) and 17.4 µM (active), respectively.

Take `Clc1ccc2c(c1)[C@H]1OCC[C@H]1[C@@H](c1ccco1)N2`: the EC50 in experiment [2] is 10.9 µM (active); in the experiment with H4, 9.48 µM (active); in experiment [3], 19.9 µM (active).

As to `COc1ccc(COc2cc(-c3cccc(OC)c3)nc3ccc(NC(=O)C(C)C)cc23)cc1`, the EC50 (in [2]; with H4; in experiment [3]) was > 120 µM (not active) each time.

Consider `Cc1cccc(CCNc2nc3ccc(C)cc3n3cnnc23)c1`, for which the values for the EC50 (in [2]; in the experiment with H4; in experiment [3]) were 33.2 µM (active), 7.16 µM (active) and 0.258 µM (active), respectively.

For `N#CCCn1c(=O)c(-c2cccc(C#N)c2)nc2cnc(Oc3cccc(Cl)c3)nc21`, the AC50 at Cytochrome P450 2C9 was 12.6 µM (inconclusive).

With `Cn1c(=O)cc(OCC(=O)NCc2cccnc2)c2ccccc21`, the AC50 is 14.1 µM (inconclusive) at Cytochrome P450 2C9 and 1.58 µM (inconclusive) on Cytochrome P450 1A2.

In the case of `CC(C(=O)c1c[nH]c2ccccc12)N1CCSCC1` (centres undefined), on Cytochrome P450 2C9, the AC50 is 31.6 µM (inconclusive).

Take `Cc1nn(C(=O)c2ccoc2C)c(N)c1-c1ccccc1`: the EC50 was 26.9 µM (active) in [2], 21.6 µM (active) in the experiment with H4 and 5.93 µM (active) in experiment [3].

As for `CCn1c(Cn2nnc(-c3ccccc3)n2)nnc1SCC(=O)Nc1ccc(C(C)=O)cc1`, the EC50 in experiment [2] was 71.4 µM (active); in the experiment with H4, 16.1 µM (active); in experiment [3] it was > 120 µM (not active).

On to `Cc1ccc(-c2nc(-c3cccnc3)no2)c(C)c1`, for which, in [4], the EC50 is > 150 µM (inactive).

Consider `CCOC(=O)c1ccc(NC(=O)CCS(=O)(=O)c2ccc(Br)s2)cc1`, for which the EC50 in experiment [1] is > 260 µM (inactive).

On to `COc1cccc(-c2csc(NC(=O)Nc3ccccc3)n2)c1`, for which the EC50 in [2] is 11.1 µM (active); in the experiment with H4, 18.9 µM (active); in experiment [3], > 120 µM (not active); in experiment [5], > 195 µM (not active).

As to `N#CCCn1c(=O)c(-c2cc(F)cc(F)c2)nc2cnc(OCc3ccccc3)nc21`, the AC50 is 15.8 µM (inconclusive) on Cytochrome P450 3A4 and 3.16 µM (inconclusive) on Cytochrome P450 2C9.

`O=C(O)CCc1ccc(-c2ccc(Cl)cc2)n1CCC(=O)O`: on Cytochrome P450 2C9, the AC50 is 31.6 µM (inconclusive).

For `NC(=NOC(=O)c1cccc([N+](=O)[O-])c1)c1cccnc1`, the EC50 in [2] was 7.46 µM (inconclusive); in the experiment on H4, > 120 µM (not active); in experiment [3], 3.61 µM (active).

As to `CC(=O)Nc1ccc(N2C(=O)C3C4CC(=O)C(c5ccccc54)C3C2=O)cc1` (centres undefined), the EC50 in [1] was > 260 µM (inactive).

As to `CCOC(=O)c1c(C)n[nH]c1N/N=C/c1cccnc1`, the EC50 in [2] is 14.7 µM (active); in the experiment with H4, > 120 µM (not active); in experiment [3], > 120 µM (not active).

`CC1(C)C2CC=C(/C=N/NC(=O)c3ccc(Cl)cc3)C1C2` (centres undefined): the figures for the EC50 (in experiment [2]; in the experiment with H4; in experiment [3]) were 12.4 µM (active), > 120 µM (not active) and > 120 µM (not active), respectively.

Take `NS(=O)(=O)c1cc2c(cc1Cl)N=C(CSCc1ccccc1)NS2(=O)=O` [BENZTHIAZIDE]: the AC50 on Cytochrome P450 2C9 was 3.98 µM (inconclusive).

As for `Cc1cccc(N(C)C(=S)Oc2ccc3ccccc3c2)c1` [TOLNAFTATE], the AC50 on Cytochrome P450 2C9 is 1.26 µM (inconclusive).
